Each structure is given as a SMILES string.

Here are results for seven compounds from patent publication US7238689B2, “Isoxazoline derivative and herbicide comprising the same as active ingredient” (Ihara Chemical Industry Co., Ltd., priority 2001, dated 2007).

Holding throughout (assay type): in vivo
Parameters in all cases: scale not given here

The subject of experiment [1] is Echinochloa crus-galli (L.) Beauv. var. crusgalli. Briefly: Herbicidal effect by upland field soil treatment. As to conditions: active ingredient 1000 g/ha, examined at 21st day from treatment. An excerpt:
(§1) An upland field soil was filled in a plastic pot of 80 cm^2. Seeds of Echinochloa crus-galli (L.) Beauv. var. crusgalli and Setaria viridis (L.) Beauv. were sowed, followed by covering with the same soil. […] Then, breeding was made in a greenhouse, and the herbicidal effect of each wettable powder was examined at the 21st day from the treatment in accordance with the standard shown in Table 21.

Experiment [2] has as its system Setaria viridis (L.) Beauv. Put plainly: Herbicidal effect by upland field soil treatment. As to conditions: active ingredient 1000 g/ha, examined at 21st day from treatment.
Source text: as §1

Experiment [3] has as its system Echinochloa crus-galli (L.) Beauv. var. crus-galli. Briefly: Herbicidal effect by upland foliage treatment. The settings on record: active ingredient 1000 g/ha, examined at 14th day from treatment. The protocol: (§2) A sand was filled in a plastic pot of 80 cm^2. Seeds of Echinochloa crus-galli (L.) Beauv. var. crus-galli and Setaria viridis (L.) Beauv. were sowed. Breeding was made in a greenhouse for 2 weeks. Wettable powders produced in accordance with the Formulation 1 were diluted with water and sprayed on the whole foliage of plants from above the plants using a small sprayer in an amount of 1,000 liters per 1 hectare so that the amount of each active ingredient became 1,000 g per 1 hectare. Then, breeding was made in the greenhouse, and the herbicidal effect of each wettable powder was examined at the 14th day from the treatment in accordance with the standard shown in Table 21.

The test system of experiment [4] is Setaria viridis (L.) Beauv. Put plainly: Herbicidal effect by upland foliage treatment. The settings on record: active ingredient 1000 g/ha, examined at 14th day from treatment. The protocol:
as §2

The test system of experiment [5] is Echinochloa oryzicola Vasing. Put plainly: Herbicidal effect by paddy field soil treatment. The settings on record: wettable powder, active ingredient 1000 g/ha, examined at the 21st day from the treatment. A digest of the protocol:
(§3)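 Seeds sown in puddled paddy soil under 3 cm of water; the next day wettable powders diluted in water were dropped onto the water surface at 1,000 g active ingredient/ha. Plants grown in a greenhouse, with herbicidal effect scored on day 21 against a rating standard.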

The test system of experiment [6] is Monochoria vaginalis (Murm. f.) Presl var. plantaginea (Roxb.) Solms-Laub. Briefly: Herbicidal effect by paddy field soil treatment. As to conditions: wettable powder, active ingredient 1000 g/ha, examined at the 21st day from the treatment. The procedure, abridged: as §3

Take `CC(C)Cn1nc(Cl)c(CS(=O)(=O)C2=NOC(C)(C)C2)c1C(F)(F)F` [3-0084]: the entries for the “herbicidal effect (index per standard of Table 21), Echinochloa curs-galli (L.) Beauv. Var. crus-galli” value in experiment [1] and in experiment [3] were 5 and 4, respectively. The “herbicidal effect (index per standard of Table 21), Setaria viridis (L.) Beauv.” value in experiment [2] stood at 5; in experiment [4], 4. Moreover, the “Herbicidal effect index, Echinochloa oryzicola Vasing” value in experiment [5] is 5. Besides, in experiment [6], the “Herbicidal effect index, Monochoria vaginalis (Burm. F.) Presl var. plantaginea (Roxb.) Solms-Laub.” value (“Herbicidal effect index … (Roxb.) Solms-Laub.” for short) is 5.
Regarding `CC1(C)CC(S(=O)(=O)Cc2c(Cl)nn(CC(F)F)c2C(F)(F)F)=NO1` [3-0115], the “herbicidal effect (index per standard of Table 21), Echinochloa curs-galli (L.) Beauv. Var. crus-galli” value in experiment [1] and in experiment [3] was 5 each time. Moreover, the “herbicidal effect (index per standard of Table 21), Setaria viridis (L.) Beauv.” value in experiment [2] turned out to be 5; in experiment [4], 4. Further, in experiment [5], the “Herbicidal effect index, Echinochloa oryzicola Vasing” value was 5. Moreover, the “Herbicidal effect index … (Roxb.) Solms-Laub.” value in experiment [6] was found to be 5.
`COCn1nc(C(F)(F)F)c(CS(=O)(=O)C2=NOC(C)(C)C2)c1Cl` [3-0118]: the “herbicidal effect (index per standard of Table 21), Echinochloa curs-galli (L.) Beauv. Var. crus-galli” value in experiment [1] and in experiment [3] was 5 each time. The “herbicidal effect (index per standard of Table 21), Setaria viridis (L.) Beauv.” value in experiment [2] was 5; in experiment [4], 4. Besides, the “Herbicidal effect index, Echinochloa oryzicola Vasing” value in experiment [5] is recorded as 5. In experiment [6], the “Herbicidal effect index … (Roxb.) Solms-Laub.” value was 5.
`CCC(C)n1nc(C(F)(F)F)c(CS(=O)(=O)C2=NOC(C)(C)C2)c1Cl` (stereo not drawn) [3-0081]: the “herbicidal effect (index per standard of Table 21), Echinochloa curs-galli (L.) Beauv. Var. crus-galli” value is listed as 5 in experiment [1] and 4 in experiment [3]. Further, the “herbicidal effect (index per standard of Table 21), Setaria viridis (L.) Beauv.” value in experiment [2] came out at 5; in experiment [4] it was 4. In addition, in experiment [5], the “Herbicidal effect index, Echinochloa oryzicola Vasing” value was 5. Moreover, in experiment [6], the “Herbicidal effect index … (Roxb.) Solms-Laub.” value stood at 5.
Consider `CCC(C)n1nc(Cl)c(CS(=O)(=O)C2=NOC(C)(C)C2)c1C(F)(F)F` (stereo not drawn) [3-0082], for which the “herbicidal effect (index per standard of Table 21), Echinochloa curs-galli (L.) Beauv. Var. crus-galli” value in experiment [1] came out at 5; in experiment [3] it was 4. The “herbicidal effect (index per standard of Table 21), Setaria viridis (L.) Beauv.” value in experiment [2] is given as 5; in experiment [4], 4. For the same compound, the “Herbicidal effect index, Echinochloa oryzicola Vasing” value in experiment [5] was determined as 5. In addition, the “Herbicidal effect index … (Roxb.) Solms-Laub.” value in experiment [6] is on record as 5.
On to `CCn1nc(Cl)c(CS(=O)(=O)C2=NOC(C)(C)C2)c1C(F)(F)F` [3-0074], for which the “herbicidal effect (index per standard of Table 21), Echinochloa curs-galli (L.) Beauv. Var. crus-galli” value in experiment [1] and in experiment [3] was 5 in each case. For the same compound, the “herbicidal effect (index per standard of Table 21), Setaria viridis (L.) Beauv.” value in experiment [2] is recorded as 5; in experiment [4] it was 4. For the same compound, the “Herbicidal effect index, Echinochloa oryzicola Vasing” value in experiment [5] came out at 5. For the same compound, the “Herbicidal effect index … (Roxb.) Solms-Laub.” value in experiment [6] is 5.
`Cn1nc(C(F)(F)F)c(CS(=O)(=O)C2=NOC(C)(C)C2)c1Cl` [3-0039]: the “herbicidal effect (index per standard of Table 21), Echinochloa curs-galli (L.) Beauv. Var. crus-galli” value in experiment [1] and in experiment [3] was 5 throughout. Besides, the “herbicidal effect (index per standard of Table 21), Setaria viridis (L.) Beauv.” value in experiment [2] and in experiment [4] was 5 each time. Besides, the “Herbicidal effect index, Echinochloa oryzicola Vasing” value in experiment [5] was found to be 5. In experiment [6], the “Herbicidal effect index … (Roxb.) Solms-Laub.” value was 5.
